Results taken from patent US8012935B2, “Synthetic peptides and methods for treating cancer invasion and metastasis” (priority 2002, dated 2011).

Legend:
[1] = system: human melanoma cells A2058; test: MATRIGEL invasion and migration by melanoma cells A2058; format: cell-based
Procedure: The inhibitory effects of these oligopeptides on the MATRIGEL™ invasion and migration through the MATRIGEL™ membrane by various cancer cells were evaluated using “Improved MATRIGEL™ Invasion Chamber” (Becton Dickinson, USA).
(§1) The studies were conducted using “Improved MATRIGEL™ Invasion Chambers” (Becton Dickinson, USA).
(§2) In studies with human melanoma cells, human fibroblasts-NHDF (Clonetics) were seeded on MATRIGEL™ inserts and allowed to reach confluence. This was done to closely simulate in vivo conditions surrounding cancer cells in the body. Human melanoma cells A2058 were then seeded on the insert. Conditioned media from the fibroblast culture supplemented with various levels of chosen oligopeptide were added to the chamber. The system was incubated for about 24 hours. At the end of the period the cells on the upper surface of the insert were wiped off. The cells that had invaded the MATRIGEL™ membrane and had migrated to the lower surface of the insert were stained with “quick stain” and were counted under the microscope. […] The inhibitory activity of the control was considered as “0”. The media from invasion assays were saved for zymogram studies.

[2] = system: human breast cancer cells MDA-MB 231; test: MATRIGEL invasion by breast cancer cells MDA-MB 231; format: cell-based; details: 150 μM
Procedure: as §1, §2
(§3) In studies with human breast cancer cells MCF7 the procedure was essentially similar to that used for melanoma cells, except that MRC5 (ATCC) fibroblasts were used in place of NHDF.
In studies with human breast cancer cells MDA-MB 231 the fibroblast-MRC5 cells were plated in the wells. The rest of the procedure remained the same as in studies with MCF7 cells.

[3] = system: human breast cancer cells MCF7; test: MATRIGEL invasion and migration by breast cancer cells MCF7; format: cell-based; details: for inhibition of MATRIGEL invasion: MCF7
Procedure: as §1, §2, §3

[4] = system: MMP-2 secreted by the cancer cells; test: Zymogram studies of media from invasion assays; format: cell-based, human; details: zymogram gels
Procedure: as §2
The media (25-30 μl) from various wells in invasion studies were applied to NOVEX® zymogram gels (Invitrogen). The gels were developed and stained as recommended by the manufacturer. The matrix metalloproteinases (MMPs) were identified on the basis of their known molecular weights.

[5] = comparison of oligopeptides (FIG. 2), concentration not given, about 24 hours

Sequence: GDVAPKTDKE (listed as Homo sapiens)
- inhibition of MATRIGEL invasion ([1]; 100 μM concentration): did not show any activity

Sequence: LPPDVQRVD (listed as Homo sapiens)
- inhibition of MATRIGEL invasion [1, 5]: about 20%

Sequence: PRKPKWDK (listed as Homo sapiens) [synthetic oligopeptide corresponding to amino acids 85 to 92 of MMP-2]
- inhibition of MATRIGEL invasion [2]: about 94%
- inhibition of MATRIGEL invasion ([1]; 50 μM (FIG. 3)): about 37%
- inhibition of MATRIGEL invasion ([1]; 100 μM concentration): 63%
- inhibition of MATRIGEL invasion ([1]; 150 μM (FIG. 3)): 73%
- inhibition of MATRIGEL invasion [1, 5]: 73%
- inhibition of MATRIGEL invasion ([3]; 150 μM (FIG. 4)): about 70%
- inhibition of MATRIGEL invasion ([3]; 200 μM (FIG. 4)): about 90%
- inhibition of the invasion of cancer cells ([3]; summary statement, cell line and concentration not stated): about 90%
- inhibitory effect on the amount of MMP-2 secreted [4]: did not show any inhibitory effect

Sequence: TMRKPRCGNPDVAN (listed as Homo sapiens) [reference compound]
- inhibition of MATRIGEL invasion [1, 5]: about 11%
